In patent publication US9107411B2, “Indolecarboxamides and benzimidazolecarboxamides as insecticides and acaricides” (BAYER INTELLECTUAL PROPERTY GMBH, priority 2011, dated 2015):

How the values were obtained:
[1] = system: Boophilus microplus; experiment: Boophilus microplus test (BOOPMI injection); type: in vivo; settings: application rate 20 μg/animal; injected into the abdomen; after 7 days
Method in brief: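 Read-out after 7 days is % efficacy, judged by fertile egg laying, with 100% meaning no fertile eggs from any tick. Compound was given by abdominal injection as a DMSO solution diluted to the desired concentration. Treated ticks were held in dishes in a climate-controlled room.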

[2] = logP (HPLC-MS); type: physicochemical; settings: HPLC, reversed-phase column (C18), 43° C.
[3] = system: adult Musca domestica; experiment: Musca domestica test (MUSCDO); type: in vivo; settings: application rate 100 ppm; treated sponge; after 2 days
Method in brief: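 After 2 days' exposure to a treated sponge, adult house fly mortality was recorded as kill %. Formulation: active ingredient in dimethyl sulphoxide, then water dilution to the test concentration.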

[4] = system: Lucilia cuprina larvae; experiment: Lucilia cuprina test (LUCICU); type: in vivo; settings: application rate 100 ppm; treated horse meat; after 2 days
Method in brief: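 Mortality scored as percent of larvae killed 2 days after exposure. Horse meat was treated with the compound, formulated from DMSO stock diluted with water to the test concentration, and populated with roughly 20 larvae.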

[5] = system: Ctenocephalides felis; experiment: Ctenocephalides felis oral (CTECFE); type: in vivo; settings: application rate 100 ppm in citrated cattle blood; after 2 days
Method in brief: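 Readout is percent mortality after 2 days (0–100%) in roughly 20 unfed adult fleas. The fleas had imbibed citrated cattle blood dosed with compound through Parafilm, with the compound diluted from a DMSO concentrate.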

[6] = system: Phaedon cochleariae; experiment: Phaedon test (PHAECO spray treatment); type: in vivo; settings: Chinese cabbage leaf discs, after 7 days
Method in brief: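 Larval mortality was assessed 7 days after Phaedon cochleariae larvae were placed on dried, spray-treated Brassica pekinensis leaf discs. The formulation was an acetone/dimethylformamide concentrate with alkylaryl polyglycol ether emulsifier, diluted in emulsifier-containing water. Results are given as % kill, from 0 (no larvae dead) to 100 (all dead).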

[7] = system: Tetranychus urticae; experiment: Tetranychus test, OP-resistant (TETRUR spray treatment); type: in vivo; settings: bean leaf discs, after 6 days
Method in brief: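 Bean leaf discs infested with all stages of OP-resistant T. urticae sprayed with compound formulated in acetone/DMF plus alkylaryl polyglycol ether emulsifier, diluted in water. Efficacy (% mites killed) scored after 6 days.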

[8] = system: Spodoptera frugiperda; experiment: Spodoptera frugiperda test (SPODFR spray treatment); type: in vivo; settings: maize leaf discs, after 7 days
Method in brief: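 Mortality read-out at 7 days, given as % efficacy, where 100% means every caterpillar dead and 0% none. Caterpillars were placed on dried maize leaf discs that had been sprayed with test formulation. That formulation was an acetone/dimethylformamide concentrate diluted in emulsifier-containing water.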

[9] = system: Myzus persicae; experiment: Myzus test (MYZUPE spray treatment); type: in vivo; settings: Chinese cabbage leaf discs, after 6 days
Protocol: Myzus Test (MYZUPE Spray Treatment) Solvent: 78 parts by weight of acetone • • 1.5 parts by weight of dimethylformamide Emulsifier: 0.5 part by weight of alkylaryl polyglycol ether To produce an appropriate active ingredient formulation, 1 part by weight of active ingredient is mixed with the stated amounts of solvent and emulsifier, and the concentrate is diluted with emulsifier-containing water to the desired concentration. Leaf discs of Chinese cabbage (Brassica pekinensis) infested by all stages of the green peach aphid (Myzus persicae) are sprayed with an active ingredient formulation of the desired concentration. After 6 days, the efficacy in % is determined. 100% means that all of the aphids have been killed; 0% means that none of the aphids have been killed.

[10] = acidic range pH 2.7, acetonitrile (0.1% formic acid)/water gradient, calibration with unbranched alkan-2-ones
[11] = acidic range pH 2.7, EEC directive 79/831 Annex V.A8, two values = both regioisomers (G = N)

SMILES | efficacy (laying of fertile eggs) [1] [%] | log p [2, 10] | efficacy (kill in %) [3] [%] | efficacy (kill in %) [4] [%] | efficacy (kill in %) [5] [%] | efficacy in % ([6]; application rate 100 g/ha) [%] | efficacy in % ([7]; application rate 100 g/ha) [%] | efficacy in % ([8]; application rate 100 g/ha) [%] | efficacy in % ([9]; application rate 100 g/ha) [%] | efficacy in % ([6]; application rate 500 g/ha) [%] | efficacy in % ([7]; application rate 500 g/ha) [%] | efficacy in % ([8]; application rate 500 g/ha) [%] | efficacy in % ([9]; application rate 500 g/ha) [%] | log p [2, 11]
CCn1c(C(=O)NC(c2cccc(OC(F)F)c2)C(F)(F)F)cc2cc(C(=O)NC3CC3)c(Cl)cc21 (stereo not drawn) [Compound 276] | 100 | 3.48 | 100 | 100 | 100 | 100 | 90 | 100 | 90 |  |  |  |  | 
CCn1c(C(=O)NC(c2ccc(F)c(Cl)c2)C(F)(F)F)nc2cc(C(=O)NC3CC3)c(Cl)cc21 (stereo not drawn) [Compound 37] | 100 | 3.59 | 100 | 100 | 100 |  |  |  |  | 100 | 100 | 100 | 90 | 
CCn1c(C(=O)NC(c2cccc(Br)c2)C(F)(F)F)cc2cc(C(=O)NC3CC3)c(Cl)cc21 (stereo not drawn) [Compound 40] | 100 | 3.71 |  | 100 | 100 | 100 | 100 | 100 | 90 |  |  |  |  | 
CCc1cc2c(cc1C(=O)NC1(C#N)CC1)cc(C(=O)NC(c1cccc(C(F)(F)F)c1)C(F)(F)F)n2CC (stereo not drawn) [Compound 282] | 100 |  | 90 | 100 | 100 | 100 | 100 | 100 | 80 |  |  |  |  | 3.98
Cn1c(C(=O)NC(c2ccc(F)c(Cl)c2)C(F)(F)F)cc2cc(C(=O)NC3(C#N)CC3)c(Cl)cc21 (stereo not drawn) [Compound 54] | 100 | 3.52 | 100 | 100 | 100 | 100 | 100 | 100 | 100 |  |  |  |  | 
CCn1c(C(=O)NC(c2ccc(F)c(Br)c2)C(F)(F)F)cc2cc(C(=O)NC3(C#N)CC3)c(C)cc21 (stereo not drawn) [Compound 191] | 100 | 3.71 | 90 | 100 | 100 | 100 | 100 | 100 | 90 |  |  |  |  | 
C#CCn1c(C(=O)NC(c2ccc(F)c(Cl)c2)C(F)(F)F)nc2cc(C(=O)NC3CC3)c(Cl)cc21 (stereo not drawn) [Compound 101] |  | 3.50 |  |  |  | 100 | 80 | 100 | 80 |  |  |  |  | 
CCn1c(C(=O)NC(c2ccc(F)c(Cl)c2)C(F)(F)F)cc2cc(C(=O)NC3(C#N)CC3)c(C)cc21 (stereo not drawn) [Compound 193] |  | 3.66 |  |  |  | 100 | 100 | 100 | 90 |  |  |  |  | 
CCn1c(C(=O)NC(c2ccc(F)c(C(F)(F)F)c2)C(F)(F)F)nc2cc(C(=O)NC3CC3)c(Cl)cc21 (stereo not drawn) [Compound 38] | 100 | 3.71 | 100 | 100 | 100 |  |  |  | 100 | 100 | 100 | 100 | 90 | 
C#CCn1c(C(=O)NC(c2cccc(Cl)c2)C(F)(F)F)cc2cc(C(=O)NC3CC3)c(Cl)cc21 (stereo not drawn) [Compound 5] |  | 3.45 |  |  |  |  |  |  |  | 100 | 100 | 100 | 90 | 
CCn1c(C(=O)NC(c2cc(Cl)cc(Cl)c2)C(F)(F)F)cc2cc(C(=O)NC3(C#N)CC3)c(C)cc21 (stereo not drawn) [Compound 291] |  |  |  |  |  | 100 | 100 | 100 | 90 |  |  |  |  | 4.07
C#CCn1c(C(=O)NC(c2ccc(F)c(C(F)(F)F)c2)C(F)(F)F)nc2cc(C(=O)NC3CC3)c(Cl)cc21 (stereo not drawn) [Compound 97] | 100 | 3.62 | 100 | 100 | 95 |  |  |  | 100 | 100 | 100 | 100 |  | 
CCn1c(C(=O)NC(c2cccc(C(F)(F)F)c2)C(F)(F)F)cc2cc(C(=O)NC3(C#N)CC3)c(C)cc21 (stereo not drawn) [Compound 183] |  | 3.75 |  |  |  | 100 | 100 | 100 | 90 |  |  |  |  | 
O=C(NC1CC1)c1cc2nc(C(=O)NC(c3ccc(F)c(C(F)(F)F)c3)C(F)(F)F)n(C3CC3)c2cc1Br (stereo not drawn) [Compound 300] |  |  |  |  |  |  |  |  | 100 | 100 | 100 | 100 |  | 3.59
CCn1c(C(=O)NC(c2cc(Cl)c(F)c(Cl)c2)C(F)(F)F)cc2cc(C(=O)NC3(C#N)CC3)c(Cl)cc21 (stereo not drawn) [Compound 311] |  |  |  |  |  | 100 | 100 | 100 | 90 |  |  |  |  | 4.19
C#CCn1c(C(=O)NC(c2cccc(C(F)(F)F)c2)C(F)(F)F)cc2cc(C(=O)NC3(C#N)CC3)c(C)cc21 (stereo not drawn) [Compound 209] |  | 3.48 |  |  |  | 100 | 100 | 100 | 90 |  |  |  |  | 
CCn1c(C(=O)NC(c2cc(Cl)c(F)c(Cl)c2)C(F)(F)F)cc2cc(C(=O)NC3(C#N)CC3)c(C)cc21 (stereo not drawn) [Compound 290] |  |  |  |  |  | 100 | 100 | 100 |  |  |  |  | 100 | 4.13
